Data taken from the supplement of paper PMC10307832.

How the values were obtained:
Assay in all cases: relative viability (nuclei count vs DMSO), 5 days (fraction); higher = more cells survive
BAY61-3606 = compound: COC1=C(C=C(C=C1)C2=CC3=NC=CN3C(=N2)NC4=C(C=CC=N4)C(=O)N)OC [BAY61-3606]
How it was run: (§1)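 After an overnight hold at 37 °C, lung cancer cell lines in 1536-well plates were pinned with five library-drug doses (not always all listed), each √10 from the next, on vehicle-anchored plates. The cells stayed 5 days without fresh medium, then a one-step fix, permeabilisation and Hoechst stain preceded 4× imaging and MetaXpress nuclear counts. A plate passed only with control CV under 25% and at least one doubling. Viability is the median, over plates, of treated-well nuclei relative to vehicle-well nuclei.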

Doxorubicin = compound: COc1cccc2c1C(=O)c1c(O)c3c(c(O)c1C2=O)C[C@@](O)(C(=O)CO)C[C@@H]3O[C@H]1C[C@H](N)[C@H](O)[C@H](C)O1 [Doxorubicin]
How it was run: as §1

Doxorubicin + Pemetrexed = compound: COc1cccc2c1C(=O)c1c(O)c3c(c(O)c1C2=O)C[C@@](O)(C(=O)CO)C[C@@H]3O[C@H]1C[C@H](N)[C@H](O)[C@H](C)O1 [Doxorubicin] + Nc1nc2[nH]cc(CCc3ccc(C(=O)N[C@@H](CCC(=O)O)C(=O)O)cc3)c2c(=O)[nH]1 [Pemetrexed] (partner 0.2 µM)
How it was run: (§2)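 A single step with final 0.05% Triton X-100, 1% formaldehyde and 1 ug/ml Hoechst fixed the cells and stained nuclei 5 days after treatment. Lung cancer cell lines in 1536-well plates had been treated by pin tool the day after seeding with one drug alone or a fixed anchor-drug dose plus five library-drug doses (not always all listed) in √10 steps, and nuclei were counted on 4× images. Relative viability is the ratio of nuclei in treated wells to nuclei in vehicle wells, taken as the median of duplicate plates.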

BAY61-3606 + Alpelisib = compound: COC1=C(C=C(C=C1)C2=CC3=NC=CN3C(=N2)NC4=C(C=CC=N4)C(=O)N)OC [BAY61-3606] + Cc1nc(NC(=O)N2CCC[C@H]2C(N)=O)sc1-c1ccnc(C(C)(C)C(F)(F)F)c1 [Alpelisib] (partner 2 µM)
How it was run: as §2

Cell Line	relative viability (BAY61-3606; 0.02 µM)	relative viability (BAY61-3606; 0.06325 µM)	relative viability (BAY61-3606; 0.2 µM)	relative viability (BAY61-3606; 0.6325 µM)	relative viability (BAY61-3606; 2 µM)	relative viability (Doxorubicin; 0.003162 µM)	relative viability (Doxorubicin; 0.01 µM)	relative viability (Doxorubicin; 0.03162 µM)	relative viability (Doxorubicin; 0.1 µM)	relative viability (Doxorubicin + Pemetrexed; first compound 0.003162 µM)	relative viability (Doxorubicin + Pemetrexed; first compound 0.01 µM)	relative viability (Doxorubicin + Pemetrexed; first compound 0.03162 µM)	relative viability (Doxorubicin + Pemetrexed; first compound 0.1 µM)	relative viability (BAY61-3606 + Alpelisib; first compound 0.02 µM)	relative viability (BAY61-3606 + Alpelisib; first compound 0.06325 µM)	relative viability (BAY61-3606 + Alpelisib; first compound 0.2 µM)	relative viability (BAY61-3606 + Alpelisib; first compound 0.6325 µM)	relative viability (BAY61-3606 + Alpelisib; first compound 2 µM)	relative viability (Doxorubicin; 0.001 µM)	relative viability (Doxorubicin + Pemetrexed; first compound 0.001 µM)
NCI-H1793	0.964	1.02	0.786	1.08	1.03	1.18	0.863	0.731	0.901	1.11	0.904	0.617	0.784	0.817	0.782	0.64	0.882	0.839	–	–
NCI-H1651	1.01	0.93	0.986	1.01	0.883	0.96	0.925	0.642	0.635	0.628	0.604	0.57	0.588	0.991	0.964	0.938	0.967	0.738	0.949	0.591
NCI-H2126	1.07	0.931	0.944	1.05	0.915	1	0.97	0.914	1.01	0.738	0.712	0.699	0.681	0.784	0.769	0.705	0.739	0.671	0.946	0.623
HCC-44	0.947	0.989	1.03	1.03	1.05	0.992	0.941	1.03	0.894	0.698	0.625	0.685	0.63	0.866	0.909	0.806	0.997	0.833	0.998	0.625
RERF-LC-KJ	1.04	1.03	0.93	1.06	0.791	1.04	0.986	0.713	0.904	0.496	0.418	0.39	0.382	0.957	0.751	0.765	0.853	0.629	0.986	0.458
LXF-289	0.95	1.07	0.874	1.04	1.05	1.03	1.01	1.05	1.01	0.917	0.839	1.03	0.929	0.991	1.09	1.03	1.14	1.05	0.952	0.95
NCI-H838	1.03	0.942	0.999	0.934	0.668	0.988	0.964	0.807	0.552	0.228	0.229	0.256	0.236	0.988	0.963	0.982	1.02	0.888	1	0.252
HCC-827	1.02	1.01	1.06	1.1	0.994	1.01	1.04	1.03	1	0.281	0.22	0.247	0.261	0.94	1.01	0.995	0.954	0.916	1.01	0.272
NCI-H1792	0.982	0.853	1	0.885	1.03	0.885	0.964	0.903	0.747	0.889	0.809	0.691	0.466	0.743	0.673	0.74	0.751	0.674	–	0.43
NCI-H460	1.04	1.03	0.959	0.998	0.891	0.96	0.859	0.468	0.141	0.064	0.0574	0.0641	0.0392	0.58	0.442	0.482	0.398	0.174	0.957	0.0538
NCI-H3122	1.02	1	0.985	1.01	0.961	1.01	0.908	0.876	0.92	0.208	0.334	0.194	0.174	0.797	0.879	0.868	0.833	0.69	0.946	0.203
NCI-H2347	1.03	1.05	1.04	1	1.05	1.08	0.945	0.945	0.838	0.424	0.42	0.507	0.463	1.17	0.9	1.13	1.16	0.986	0.992	0.417
NCI-H1944	1.08	1	0.95	0.785	0.619	1.02	0.902	0.692	0.802	0.602	0.643	0.504	0.495	0.911	0.867	0.842	0.703	0.505	0.929	0.606
EKVX	1.04	1	0.884	1.07	0.99	1.03	0.963	0.951	0.902	0.404	0.426	0.45	0.257	0.916	0.886	0.89	0.981	0.744	1.01	0.336
